Assay [1] relates to cell-free secondary alcohol dehydrogenase (SADH) system. The experiment in a line: Cofactor requirement of cell-free soluble extracts oxidizing 2-butanol. Format: biochemical. How it is done:
To prepare the cell-free secondary alcohol dehydrogenase (SADH) system, the washed cells were disrupted with a Wave Energy Ultrasonic Oscillator, Model W201 (Wave Energy System, Inc., Newtown, Pa.) and centrifuged at 20,000× g. for 30 minutes. […] The enzyme activity was measured with a fluorescence spectrophotometer (Perkin Elmer, Model MPF 44A) by following the formation of reduced NAD (EX 340 nm, Em 460 nm). The formation of reduced NAD was also followed with an absorption spectrophotometer at 340 nm. The assay system (3 ml.) contained: potassium phosphate buffer pH 7.0; 150 μmol.; NAD 1 μmol.; a given amount of enzyme preparation; and secondary alcohol 10 μmol. The reaction was started by the addition of substrate. One unit of enzyme activity represents the reduction of one μmole NAD per minute. Protein concentrations were determined by the Lowry method (J. Biol. Chem., 193: 255-275 (1951)).

Assay [2] concerns secondary alcohol dehydrogenase. In words: Activity of purified yeast-derived secondary alcohol dehydrogenase. Format: biochemical, Pichia sp. NRRL Y-11,328. To be noted: for ability to act as electron acceptor/carrier: purified enzyme.
Assay [3] concerns Methylobacter capsulatus Y (NRRL B-11,201). In words: Oxidation of n-alkanes to methyl ketones by resting cell suspension. Format: cell-based. To be noted: cell suspension grown on methane. The protocol:
(§1) The pH of the nutrient medium was adjusted to 7.0 by the addition of acid or base and 50 ml. samples of the nutrient medium were charged into a plurality of 300 ml. shaker flasks. […] The isolates had been maintained on methanol (0.4% V/V) agar plates or on agar plates under an atmosphere of methane and air having a 1:1 V/V gas ratio which had been transferred every two weeks. For growth on methanol, the medium was supplemented with 0.4% methanol. For growth on methane, the gaseous phase of the inoculated flasks was replaced with a gas mixture comprised on methane and air having a ratio of 1:1 on a V/V basis. The inoculated flasks were sealed air-tight and were incubated on a rotary shaker of orbital radius 2.5 cm. at 250 rpm and at 30° C. for two days until turbidity in the medium had developed. The cells were harvested by centrifugation at 10,000×g. at 4° C. for 30 minutes. The cell pellet was washed twice with a 0.05 M phosphate buffer at a pH of 7.0 (containing 0.02 M MgCl2). The washed cells were then suspended in a 0.05 M phosphate buffer at pH 7.0.
(§2) A 0.5 ml. sample of each washed cell suspension (2 mg. cells) was put into 10 ml. vials at 4° C. which were sealed with a rubber cap. The gaseous phase of the vials was removed with vacuum and then was replaced with a gas mixture of the substrate reactant (i.e., alkane or secondary alcohol) and oxygen at a 1:1 V/V ratio. (In the case of a liquid substrate, i.e., secondary alcohol, 10 μl of the substrate was put in the 10 ml. vials). The vials were then incubated at 30° C. on a rotary shaker at 300 rpm. Samples of product (1-3 μl) were withdrawn periodically with a microsyringe and the products were analyzed by gas chromatography (ionization flame detector column).

For assay [4], the system named is Methylobacterium organophilum XX. The assay is described as above. To be noted: cell suspension grown on methane. Format: cell-based. How it is done:
as §1, §2

The test system of assay [5] is Methylocystis parvus OBBP (NRRL B-11,198). The description is as above. Format: cell-based. To be noted: cell suspension grown on methane. How it is done: as §1, §2
For assay [6], the system named is Methylomonas methanica SI (NRRL B-11,199). Described as above. Format: cell-based. To be noted: cell suspension grown on methane. How it is done:
as §1, §2

In assay [7] the test system is Methylosinus trichosporium OB3b (NRRL B-11,196). The assay is described as above. Conditions: cell suspension grown on methane. Format: cell-based. How it is done: as §1, §2
For assay [8], the system named is Methylococcus capsulatus Texas (ATCC 19069). The description is as above. Format: cell-based. Conditions: cell suspension grown on methane. How it is done: The pH of the nutrient medium was adjusted to 7.0 by the addition of acid or base and 50 ml. samples of the nutrient medium were charged into a plurality of 300 ml. shaker flasks. The shaker flasks were inoculated with an inoculating loop of cells from an agar plate containing homogeneous colonies of the microorganisms on the plate (the purity of the isolates was confirmed by microscopic examination). The isolates had been maintained on methanol (0.4% V/V) agar plates or on agar plates under an atmosphere of methane and air having a 1:1 V/V gas ratio which had been transferred every two weeks. For growth on methanol, the medium was supplemented with 0.4% methanol. For growth on methane, the gaseous phase of the inoculated flasks was replaced with a gas mixture comprised on methane and air having a ratio of 1:1 on a V/V basis. The inoculated flasks were sealed air-tight and were incubated on a rotary shaker of orbital radius 2.5 cm. at 250 rpm and at 30° C. for two days until turbidity in the medium had developed. The cells were harvested by centrifugation at 10,000×g. at 4° C. for 30 minutes. The cell pellet was washed twice with a 0.05 M phosphate buffer at a pH of 7.0 (containing 0.02 M MgCl2). The washed cells were then suspended in a 0.05 M phosphate buffer at pH 7.0.
as §2, with “The vials were then incubated at 30° C. on a rotary shaker at 300 rpm.” left out

In assay [9] the test system is Methylobacterium sp. (CRL-26, NRRL-B-11,208). The experiment in a line: Conversion of n-alkanes to secondary alcohols by cell suspensions. Format: cell-based. Conditions: growth substrate Methane. The text has this:
(§3) Both cell suspensions (particulate fraction) and cell-free particulate fraction of methane-grown methylotroph microorganisms are capable of catalyzing the conversion of C3 -C6 n-alkanes to the corresponding alcohols including secondary alcohols. The conditions for preparing the cell suspensions or the cell-free particulate fractions from methane-grown methylotroph microorganisms is the same as described above. The cell-free particulate fraction requires the presence of oxygen and NADH as an electron donor. […] Tables XVI and XVII show the conversion of C3 -C6 n-alkanes to the corresponding secondary alcohols using cell suspensions and cell-free particulate fractions, respectively, of methane-grown methylotroph microorganisms.

The subject of assay [10] is Methylococcus capsulatus (Texas, ATCC 19,069). The description is as above. To be noted: growth substrate Methane. Format: cell-based.
Source text: as §3

Assay [11] deals with Methylosinus trichosporium (OB3b, NRRL-B-11,196). The assay is described as above. Format: cell-based. Conditions: growth substrate Methane.
Source text: as §3

On to `Cc1cc2nc3c(=O)[nH]c(=O)nc-3n(C[C@H](O)[C@H](O)[C@H](O)COP(=O)(O)OP(=O)(O)OC[C@H]3O[C@@H](n4cnc5c(N)ncnc54)[C@H](O)[C@@H]3O)c2cc1C` [FAD, flavin adenine dinucleotide, reference compound], for which the “effectiveness as cofactor for oxidation of 2-butanol” value (“effectiveness as cofactor” below) in assay [1] is listed as “not effective”. In [2], the “ability to act as electron acceptor/carrier” value is given as “could not act as electron carrier”.

As for `N[C@@H](CCC(=O)N[C@@H](CS)C(=O)NCC(=O)O)C(=O)O` [GSH, glutathione, reference compound], the “effectiveness as cofactor” value in [1] was “not effective”. For the same molecule, the “inhibition of secondary alcohol dehydrogenase activity (in words)” value in assay [2] (primary alcohols tested at 10^-3 M) is “strongly inhibited”.

As to `NC(=O)C1=CN([C@@H]2O[C@H](COP(=O)(O)OP(=O)(O)OC[C@H]3O[C@@H](n4cnc5c(N)ncnc54)[C@H](OP(=O)(O)O)[C@@H]3O)[C@@H](O)[C@H]2O)C=CC1` [NAD(P)H], the “effectiveness as cofactor” value in [1] was “not effective”.

Regarding `NC(=O)c1ccc[n+]([C@@H]2O[C@H](COP(=O)([O-])OP(=O)(O)OC[C@H]3O[C@@H](n4cnc5c(N)ncnc54)[C@H](OP(=O)(O)O)[C@@H]3O)[C@@H](O)[C@H]2O)c1` [NADP, reference compound], the “effectiveness as cofactor” value in assay [1] is “not effective”. For the same molecule, in [2], the “ability to act as electron acceptor/carrier” value was “could not act as electron carrier”.

As for `O=C1C(Cl)=CC(=Nc2ccc(O)cc2)C=C1Cl` [dichlorophenol iodophenol, 2,6-dichlorophenol indophenol, reference compound], the “effectiveness as cofactor” value in assay [1] is “not effective”. Further, the “ability to act as electron acceptor/carrier” value in assay [2] was “could not act as electron carrier”.

On to `CCCCCC` [n-Hexane, n-hexane], for which the “Conversion Rates, n-alkane to methyl ketone” value in assay [3] is 0.07 μmoles/hr/mg protein; in [4] it was 0.09 μmoles/hr/mg protein; in assay [5], 0.04 μmoles/hr/mg protein; in assay [6] it was 0.02 μmoles/hr/mg protein; in [7], 0.05 μmoles/hr/mg protein; in [8], 0.09 μmoles/hr/mg protein. The “Conversion Rate, n-alkane to secondary alcohol” value in assay [9] is 0.007 μmoles/hr/^5 mg. protein; in [10] it was 0.01 μmoles/hr/^5 mg. protein; in assay [11], 0.01 μmoles/hr/^5 mg. protein.

As to `CCCCC` [n-Pentane, n-pentane], the “Conversion Rates, n-alkane to methyl ketone” value in [3] was found to be 0.63 μmoles/hr/mg protein; in assay [4], 0.58 μmoles/hr/mg protein; in [5], 0.51 μmoles/hr/mg protein; in assay [6] it was 0.28 μmoles/hr/mg protein; in assay [7], 0.72 μmoles/hr/mg protein; in assay [8], 0.42 μmoles/hr/mg protein. The “Conversion Rate, n-alkane to secondary alcohol” value was 0.01 μmoles/hr/^5 mg. protein in assay [9], 0.032 μmoles/hr/^5 mg. protein in [10] and 0.06 μmoles/hr/^5 mg. protein in [11].

Turning to `C[n+]1c2ccccc2nc2ccccc21` [phenazine methosulfate, reference compound], the “effectiveness as cofactor” value in assay [1] is reported as “not effective”. In addition, the “ability to act as electron acceptor/carrier” value in assay [2] is on record as “could not act as electron carrier”.

For the origin of these results see patent US4268630A, “Microbiological production of ketones from C3 -C6 alkanes” (priority 1979, dated 1981).
